Data reported in article PMC11865921, “Effect of mono-guanidine-like derivatives on platelet aggregation and tumour cell induced platelet aggregation” (RSC Medicinal Chemistry, 2025).
Read-outs that look alike come from different tables or passages of the source.

Key:
[1] = molecular target: T1, sigma σ1 receptor; experiment: PDSP radioligand competition binding
T1 construct: gene SIGMAR1; PDSP has often used guinea pig or rat tissue for sigma1
Excerpt: PDSP radioligand competition binding on sigma σ1 receptor

[2] = molecular target: T2, sigma σ2 receptor; experiment: PDSP radioligand competition binding; settings: read-out: [drawing 1]
T2 construct: gene TMEM97; PDSP has often used rat PC12 cells or guinea pig tissue for sigma2
Excerpt: PDSP radioligand competition binding on sigma σ2 receptor

Row | SMILES | Ki ([1]; read-out: [drawing 1]) [nM] | Ki [2] [nM] | Ki ([1]; read-out: [drawing 2]) [nM]
1 | N=C(N)Nc1ccc2c(n1)CCCC2 [compound 1] | 266 | 547 | 
2 | c1cc2c(nc1NC1=NCCN1)CCCC2 [compound 2] |  |  | 179
